Measured values from the NIST ThermoML archive (doi:10.1016/j.fluid.2010.08.022).
± gives the expanded uncertainty stated by the source.

Settings: 101.33 kPa; for mass density: Vibrating tube method; for speed of sound: Sing-around technique in a fixed-path interferometer; for viscosity: Visco Elite L rheometer

CCCCCCCC/C=C\CCCCCCCC(=O)O.NCCO [2-hydroxyethylammonium oleate]
Settings	mass density [kg/m3]	speed of sound [m/s]	viscosity [mPa·s]
310.91 K, Liquid crystal of unknown type	928.395 ± 1.7	–	–
311.16 K, Liquid crystal of unknown type	928.237 ± 1.7	1466.6 ± 3.7	–
311.41 K, Liquid crystal of unknown type	928.077 ± 1.7	1465.8 ± 3.7	–
311.66 K, Liquid crystal of unknown type	927.918 ± 1.7	1465 ± 3.7	–
311.91 K, Liquid crystal of unknown type	927.76 ± 1.7	1464.2 ± 3.7	–
312.16 K, Liquid crystal of unknown type	927.599 ± 1.7	1463.4 ± 3.7	–
312.41 K, Liquid crystal of unknown type	927.441 ± 1.7	1462.6 ± 3.7	–
312.66 K, Liquid crystal of unknown type	927.283 ± 1.7	1461.8 ± 3.7	–
312.91 K, Liquid crystal of unknown type	927.122 ± 1.7	1461 ± 3.7	–
313.16 K, Liquid crystal of unknown type	926.962 ± 1.7	1460.2 ± 3.7	–
313.41 K, Liquid crystal of unknown type	926.805 ± 1.7	1459.4 ± 3.7	–
313.66 K, Liquid crystal of unknown type	926.647 ± 1.7	1458.6 ± 3.7	–
313.91 K, Liquid crystal of unknown type	926.486 ± 1.6	1457.8 ± 3.7	–
314.16 K, Liquid crystal of unknown type	926.328 ± 1.6	1457 ± 3.7	–
314.41 K, Liquid crystal of unknown type	926.167 ± 1.6	1456.2 ± 3.7	–
314.66 K, Liquid crystal of unknown type	926.009 ± 1.6	1455.4 ± 3.7	–
314.91 K, Liquid crystal of unknown type	925.851 ± 1.6	1454.6 ± 3.7	–
315.16 K, Liquid crystal of unknown type	925.69 ± 1.6	1453.8 ± 3.7	–
315.41 K, Liquid crystal of unknown type	925.531 ± 1.6	1453 ± 3.7	–
315.66 K, Liquid crystal of unknown type	925.372 ± 1.6	1452.2 ± 3.7	–
315.91 K, Liquid crystal of unknown type	925.214 ± 1.6	1451.4 ± 3.7	–
316.16 K, Liquid crystal of unknown type	925.054 ± 1.6	1450.6 ± 3.7	–
316.41 K, Liquid crystal of unknown type	924.895 ± 1.6	1449.8 ± 3.7	–
316.66 K, Liquid crystal of unknown type	924.735 ± 1.6	1449 ± 3.7	–
316.91 K, Liquid crystal of unknown type	924.575 ± 1.6	1448.2 ± 3.7	–
317.16 K, Liquid crystal of unknown type	924.416 ± 1.6	1447.4 ± 3.7	–
317.41 K, Liquid crystal of unknown type	924.257 ± 1.6	1446.6 ± 3.7	–
317.66 K, Liquid crystal of unknown type	924.098 ± 1.6	1445.8 ± 3.7	–
317.91 K, Liquid crystal of unknown type	923.938 ± 1.6	1445 ± 3.7	–
318.16 K, Liquid crystal of unknown type	923.779 ± 1.6	1444.2 ± 3.7	–
318.4 K, Liquid crystal of unknown type	923.621 ± 1.6	1443.4 ± 3.7	–
318.66 K, Liquid crystal of unknown type	923.461 ± 1.6	1442.6 ± 3.7	–
318.91 K, Liquid crystal of unknown type	923.302 ± 1.6	1441.8 ± 3.7	–
319.16 K, Liquid crystal of unknown type	923.142 ± 1.6	1441 ± 3.7	–
319.41 K, Liquid crystal of unknown type	922.982 ± 1.6	1440.2 ± 3.7	–
319.65 K, Liquid crystal of unknown type	922.821 ± 1.6	1439.4 ± 3.7	–
319.91 K, Liquid crystal of unknown type	922.663 ± 1.6	1438.6 ± 3.7	–
320.16 K, Liquid crystal of unknown type	922.502 ± 1.6	1437.8 ± 3.7	–
320.41 K, Liquid crystal of unknown type	922.343 ± 1.6	1437 ± 3.7	–
320.66 K, Liquid crystal of unknown type	922.184 ± 1.6	1436.2 ± 3.7	–
320.91 K, Liquid crystal of unknown type	922.026 ± 1.6	1435.5 ± 3.7	–
321.16 K, Liquid crystal of unknown type	921.864 ± 1.6	1434.7 ± 3.7	–
321.41 K, Liquid crystal of unknown type	921.705 ± 1.6	1433.9 ± 3.7	–
321.66 K, Liquid crystal of unknown type	921.546 ± 1.6	1433.1 ± 3.7	–
321.91 K, Liquid crystal of unknown type	921.386 ± 1.6	1432.3 ± 3.7	–
322.15 K, Liquid crystal of unknown type	921.225 ± 1.6	1431.5 ± 3.7	–
322.41 K, Liquid crystal of unknown type	921.066 ± 1.6	1430.8 ± 3.7	–
322.66 K, Liquid crystal of unknown type	920.906 ± 1.6	1430 ± 3.7	–
322.91 K, Liquid crystal of unknown type	920.746 ± 1.6	1429.2 ± 3.7	–
323.16 K, Liquid crystal of unknown type	920.588 ± 1.6	1428.4 ± 3.7	–
323.41 K, Liquid crystal of unknown type	920.427 ± 1.6	1427.6 ± 3.7	–
323.66 K, Liquid crystal of unknown type	920.268 ± 1.6	1426.8 ± 3.7	–
323.91 K, Liquid crystal of unknown type	920.108 ± 1.6	1426 ± 3.7	–
324.16 K, Liquid crystal of unknown type	919.948 ± 1.6	1425.3 ± 3.7	–
324.41 K, Liquid crystal of unknown type	919.788 ± 1.6	1424.5 ± 3.7	–
324.66 K, Liquid crystal of unknown type	919.629 ± 1.6	1423.7 ± 3.7	–
324.91 K, Liquid crystal of unknown type	919.469 ± 1.6	1422.9 ± 3.7	–
325.16 K, Liquid crystal of unknown type	919.309 ± 1.6	1422.1 ± 3.7	–
325.41 K, Liquid crystal of unknown type	919.149 ± 1.6	1421.3 ± 3.7	–
325.66 K, Liquid crystal of unknown type	918.989 ± 1.6	1420.5 ± 3.7	–
325.91 K, Liquid crystal of unknown type	918.828 ± 1.6	1419.7 ± 3.7	–
326.16 K, Liquid crystal of unknown type	918.669 ± 1.6	1419 ± 3.7	–
326.41 K, Liquid crystal of unknown type	918.508 ± 1.6	1418.2 ± 3.7	–
326.66 K, Liquid crystal of unknown type	918.347 ± 1.6	1417.4 ± 3.7	–
326.91 K, Liquid crystal of unknown type	918.187 ± 1.6	1416.6 ± 3.7	–
327.16 K, Liquid crystal of unknown type	918.029 ± 1.6	1415.8 ± 3.7	–
327.41 K, Liquid crystal of unknown type	917.867 ± 1.6	1415.1 ± 3.7	–
327.66 K, Liquid crystal of unknown type	917.707 ± 1.6	1414.3 ± 3.7	–
327.91 K, Liquid crystal of unknown type	917.547 ± 1.6	1413.5 ± 3.7	–
328.16 K, Liquid crystal of unknown type	917.387 ± 1.6	1412.7 ± 3.7	–
328.41 K, Liquid crystal of unknown type	917.226 ± 1.6	1412 ± 3.7	–
328.66 K, Liquid crystal of unknown type	917.066 ± 1.6	1411.2 ± 3.7	–
328.9 K, Liquid crystal of unknown type	916.907 ± 1.6	1410.4 ± 3.7	–
329.16 K, Liquid crystal of unknown type	916.746 ± 1.6	1409.6 ± 3.7	–
329.41 K, Liquid crystal of unknown type	916.585 ± 1.6	1408.9 ± 3.7	–
329.66 K, Liquid crystal of unknown type	916.424 ± 1.6	1408.1 ± 3.7	–
329.91 K, Liquid crystal of unknown type	916.265 ± 1.6	1407.3 ± 3.7	–
330.16 K, Liquid crystal of unknown type	916.103 ± 1.6	1406.5 ± 3.7	–
330.41 K, Liquid crystal of unknown type	915.943 ± 1.6	1405.8 ± 3.7	–
330.66 K, Liquid crystal of unknown type	915.784 ± 1.6	1405 ± 3.7	–
330.91 K, Liquid crystal of unknown type	915.622 ± 1.6	1404.2 ± 3.7	–
331.16 K, Liquid crystal of unknown type	915.461 ± 1.6	1403.5 ± 3.7	–
331.4 K, Liquid crystal of unknown type	915.3 ± 1.6	1402.7 ± 3.7	–
331.66 K, Liquid crystal of unknown type	915.14 ± 1.6	1401.9 ± 3.7	–
331.91 K, Liquid crystal of unknown type	914.98 ± 1.6	1401.2 ± 3.7	–
332.16 K, Liquid crystal of unknown type	914.818 ± 1.6	1400.4 ± 3.7	–
332.41 K, Liquid crystal of unknown type	914.658 ± 1.6	1399.6 ± 3.7	–
332.66 K, Liquid crystal of unknown type	914.496 ± 1.6	1398.8 ± 3.7	–
332.91 K, Liquid crystal of unknown type	914.336 ± 1.6	1398.1 ± 3.7	–
333.16 K, Liquid crystal of unknown type	914.175 ± 1.6	1397.3 ± 3.7	–
333.41 K, Liquid crystal of unknown type	914.015 ± 1.6	1396.5 ± 3.7	–
333.66 K, Liquid crystal of unknown type	913.853 ± 1.6	1395.7 ± 3.7	–
333.91 K, Liquid crystal of unknown type	913.692 ± 1.6	1395 ± 3.7	–
334.16 K, Liquid crystal of unknown type	913.531 ± 1.6	1394.2 ± 3.7	–
334.41 K, Liquid crystal of unknown type	913.369 ± 1.6	1393.4 ± 3.7	–
334.66 K, Liquid crystal of unknown type	913.208 ± 1.6	1392.6 ± 3.7	–
334.91 K, Liquid crystal of unknown type	913.046 ± 1.6	1391.9 ± 3.7	–
335.16 K, Liquid crystal of unknown type	912.885 ± 1.6	1391.1 ± 3.7	–
335.4 K, Liquid crystal of unknown type	912.725 ± 1.6	1390.3 ± 3.7	–
335.66 K, Liquid crystal of unknown type	912.564 ± 1.6	1389.6 ± 3.7	–
335.91 K, Liquid crystal of unknown type	912.403 ± 1.6	1388.8 ± 3.7	–
336.16 K, Liquid crystal of unknown type	912.241 ± 1.6	1388 ± 3.7	–
336.41 K, Liquid crystal of unknown type	912.079 ± 1.6	1387.2 ± 3.7	–
336.66 K, Liquid crystal of unknown type	911.917 ± 1.6	1386.5 ± 3.7	–
336.91 K, Liquid crystal of unknown type	911.757 ± 1.6	1385.8 ± 3.7	–
337.16 K, Liquid crystal of unknown type	911.595 ± 1.6	1385 ± 3.7	–
337.41 K, Liquid crystal of unknown type	911.432 ± 1.6	1384.2 ± 3.7	–
337.66 K, Liquid crystal of unknown type	911.272 ± 1.6	1383.5 ± 3.7	–
337.91 K, Liquid crystal of unknown type	911.11 ± 1.6	1382.7 ± 3.7	–
338.15 K, Liquid crystal of unknown type	–	–	225.9 ± 3.9
338.16 K, Liquid crystal of unknown type	910.95 ± 1.6	1381.9 ± 3.7	–
338.41 K, Liquid crystal of unknown type	910.787 ± 1.6	1381.2 ± 3.7	–
338.66 K, Liquid crystal of unknown type	910.626 ± 1.6	1380.4 ± 3.7	–
338.9 K, Liquid crystal of unknown type	910.464 ± 1.6	1379.7 ± 3.7	–
339.16 K, Liquid crystal of unknown type	910.301 ± 1.6	1378.9 ± 3.7	–
339.41 K, Liquid crystal of unknown type	910.142 ± 1.6	1378.1 ± 3.7	–
339.66 K, Liquid crystal of unknown type	909.978 ± 1.6	1377.4 ± 3.7	–
339.9 K, Liquid crystal of unknown type	909.815 ± 1.6	1376.6 ± 3.7	–
340.16 K, Liquid crystal of unknown type	909.655 ± 1.6	1375.9 ± 3.7	–
340.4 K, Liquid crystal of unknown type	909.492 ± 1.6	1375.1 ± 3.7	–
340.66 K, Liquid crystal of unknown type	909.33 ± 1.6	1374.4 ± 3.7	–
340.91 K, Liquid crystal of unknown type	909.169 ± 1.6	1373.6 ± 3.7	–
341.16 K, Liquid crystal of unknown type	909.006 ± 1.6	1372.9 ± 3.7	–
341.41 K, Liquid crystal of unknown type	908.843 ± 1.6	1372.1 ± 3.7	–
341.66 K, Liquid crystal of unknown type	908.682 ± 1.6	1371.3 ± 3.7	–
341.9 K, Liquid crystal of unknown type	908.521 ± 1.6	1370.6 ± 3.7	–
342.16 K, Liquid crystal of unknown type	908.356 ± 1.6	1369.8 ± 3.7	–
342.41 K, Liquid crystal of unknown type	908.195 ± 1.6	1369.1 ± 3.7	–
342.65 K, Liquid crystal of unknown type	908.033 ± 1.6	1368.3 ± 3.7	–
342.9 K, Liquid crystal of unknown type	907.872 ± 1.6	1367.6 ± 3.7	–
343.15 K, Liquid crystal of unknown type	907.717 ± 1.6	1366.9 ± 3.7	–
348.15 K, Liquid crystal of unknown type	–	–	129.1 ± 2.6
353.15 K, Liquid crystal of unknown type	–	–	97.5 ± 1.8
358.15 K, Liquid crystal of unknown type	–	–	79.2 ± 1.4
368.15 K, Liquid	–	–	50.5 ± 1
